From patent US9243062B2, “Peptides for treatment and diagnosis of autoimmune disease” (priority 2005, dated 2016)
No end group written: not given here.

Experiments:
human pancreatic α cells = experiment: Fluorescence microscopy: binding of biotinylated homodimer CDR peptides to human pancreatic α cells; assay type: cell-based; conditions: biotinylated homodimers; fluoresceinated antibiotin as second step reagent
Method: (§1) An N terminal cysteine was added to each of the hypervariable region sequences (CDR-L1-3 and CDR-H1-3, SEQ ID NOs:6 to 16) which were synthesised by Fmoc peptide synthesis and dimerised to form homodimers. Some of each of the homodimers was biotinylated; the biotinylated homodimers were then tested by fluorescence microscopy for their ability to bind to human pancreatic a cells (used as an indicator human tissue) by using fluoresceinated antibiotin as a second step reagent. […] The non-biotinylated homodimer peptides were then tested by ELISAs for their ability to bind to anti-TCR Vβ antibody and to cardiolipin as an indicator of phospholipids (Table 1).

anti-TCR Vβ antibody = experiment: ELISA binding to anti-TCR Vβ antibody; conditions: plate coated with homodimer peptide; for Optical density reading, ELISA, antigen α-TCRVβ antibody: tested against α-TCR Vβ, mean ± SD, three observations; for Ratio Test/Control: α-TCRVβ antibody vs PBS/culture medium control
Method: as §1

[1] = ELISA binding to cardiolipin as an indicator of phospholipids; conditions: for Ratio Test/Control: cardiolipin vs ethyl alcohol control; for Optical density reading, ELISA, antigen cardiolipin: plate coated with cardiolipin in ethyl alcohol, tested against antibody or homodimer peptide, mean ± SD, three observations
Method: as §1

[2] = Phase IIb randomised double blind trial in type 2 diabetics after stopping antidiabetic medication; assay type: in vivo, human
Method: 31 subjects (21 males and 10 females) with type 2 diabetes mellitus on one or more oral antidiabetic medication(s) were entered into a randomised double blind study of 16 weeks duration. At day 01 all antidiabetic medication was stopped. Patients were randomised to either the placebo group (group C) or one of 3 treatment groups described as Groups A, B or D. All groups received a total of 4 IM injections spaced one week apart starting from day 01. The placebo group (8 subjects) received 1.2 ml of saline containing 0.1% alhydrogel. Group A (7 subjects) received 1.51 mg of a peptide according to the invention (designated as NDX-71 herein) in 1.2 ml saline containing 0.1% alhydrogel. Group B (8 subjects) received 0.86 mg NDX-71 in 1.2 ml saline containing 0.1% alhydrogel. Group D (8 subjects) received a mixture of 3 peptides of the invention (0.92 mg NDX-71, 0.68 mg C80 and 0.71 mg F90) in 1.2 ml saline containing 0.1% alhydrogel. Placebo and study medications were visibly identical. The NDX-71 peptide used in this example was the B71 peptide used in Example 6. The C80 and F90 peptides used in this example were the C80 and F90 peptides used in Example 6.
At regular intervals throughout the study period patients underwent blood tests for clinical safety and glycaemic efficacy parameters. […] Clinical safety parameters in all groups were unchanged from baseline. There were no adverse events reported in the study attributable to the test substances.

Row | Substance | ability to bind to human pancreatic α cells (human pancreatic α cells) | Optical density reading, ELISA, antigen α-TCRVβ antibody (anti-TCR Vβ antibody) | Ratio Test/Control (anti-TCR Vβ antibody) | Ratio Test/Control [1] | Optical density reading, ELISA, antigen cardiolipin [1] | glycaemic control after cessation of antidiabetic medication ([2]; 1.51 mg dose) | dose dependence of effect ([2]; 1.51 mg vs 0.86 mg) | HbA1c, treatment difference vs placebo (group C) ([2]; 21 male volunteers subset, high dose group A (1.51 mg), p<0.001) | corrected fructosamine, treatment difference vs placebo (group C) ([2]; 21 male volunteers subset, high dose group A (1.51 mg), p=0.001) | fasting glucose, treatment difference vs placebo (group C) ([2]; 21 male volunteers subset, high dose group A (1.51 mg), p=0.005) | mean HbA1c level ([2]; baseline, high dose treatment group (1.51 mg NDX-71)) [%] | mean HbA1c level ([2]; day 113, high dose treatment group (1.51 mg NDX-71)) [%] | HbA1c levels over time vs placebo group ([2]; high dose treatment group (1.51 mg NDX-71), p=0.02) | glycaemic control compared with placebo ([2]; lower dose of 0.86 mg)
1 | CDR-H3: homodimer of CDR-H3 derived monomer peptides, each SEQ ID NO:10 (LRGLLPDY) plus an N terminal cysteine (SEQ ID NO:160) (chain 1 CLRGLLPDY; chain 2 CLRGLLPDY; cysteine pairing not given here; also: homodimer) | bound to the pancreatic α cells | 0.182 ± 0.009 | 2.00 | 2.16 | 0.132 ± 0.009 | – | – | – | – | – | – | – | – | –
2 | CDR-L3 (QQYNSYPLT; Protein Light chain HV3) | bound to the pancreatic α cells | 0.243 ± 0.008 | 1.74 | 2.23 | 0.254 ± 0.012 | – | – | – | – | – | – | – | – | –
3 | NDX-71: homodimer of CDR-H2 derived monomer peptides, each SEQ ID NO:8 (NIYPSDSYTNYNQKFKD) plus an N terminal cysteine (SEQ ID NO:159) (chain 1 CNIYPSDSYTNYNQKFKD; chain 2 CNIYPSDSYTNYNQKFKD; cysteine pairing not given here; also: homodimer) | bound to the pancreatic α cells | 0.307 ± 0.018 | 1.83 | 2.40 | 0.151 ± 0.020 | able to maintain good glycaemic control | dose response effect | Statistically significant treatment differences | Statistically significant treatment differences | Statistically significant treatment differences | 6.3 | 6.9 | significantly different from the placebo group | showed improvement as compared with placebo
